In the experiment the test system is Vesicular stomatitis virus. The experiment in a line: Antiviral activity against Vesicular stomatitis virus infected in rabbit primary kidney cells assessed as inhibition of viral cytopathogenicity after 2 days. It counts as functional.
With `Nc1ncnc2c1ncn2C[C@@H](O)CO`, the MID was 300 µg/mL.

For `OC[C@@H](O)Cn1cnc2c(O)ncnc21`, the MID was above 400 µg/mL.

On to `O=c1ccn(C[C@H](O)CO)c(=O)[nH]1`, for which the MID was determined as 400 µg/mL.

Regarding `Cc1cn(C[C@H](O)CO)c(=O)[nH]c1=O`, the MID was above 400 µg/mL.

For `Cc1cn(C[C@@H](O)CO)c(=O)[nH]c1=O`, the MID was above 400 µg/mL.

`Cc1c[nH]c(=O)n(C[C@H](O)CO)c1=O`: the MID was above 400 µg/mL.

As to `NCCn1cnc2c(N)ncnc21`, the MID is above 400 µg/mL.

In the case of `CC(=O)OC[C@H](Cn1cnc2c(N)ncnc21)OC(C)=O`, the MID was 300 µg/mL.

Turning to `Nc1ncnc2c1ncn2CC[C@H](O)CO`, the MID is 100 µg/mL.

Take `Nc1ncnc2c1ncn2C[C@@H](O)[C@@H](O)CO`: the MID stood at 300 µg/mL.

In the case of `Nc1ncnc2c1ncn2C[C@H](O)[C@H](O)CO`, the MID was determined as 100 µg/mL.

Consider `Nc1ncnc2c1ncn2C[C@@H](O)[C@H](O)CO`, for which the MID is 300 µg/mL.

Take `Nc1ncnc2c1ncn2C[C@H](O)[C@@H](O)CO`: the MID was above 400 µg/mL.

Consider `O=c1ccn(CC[C@H](O)CO)c(=O)[nH]1`, for which the MID was above 400 µg/mL.

`O=c1ccn(C[C@@H](O)[C@H](O)CO)c(=O)[nH]1`: the MID turned out to be 400 µg/mL.

Regarding `Nc1ncnc2c1ncn2C(CO)CO`, the MID is 300 µg/mL.

Regarding `Nc1ncnc2c1ncn2CCCO`, the MID is 200 µg/mL.

In the case of `Nc1ncnc2c1ncn2CCO`, the MID was above 400 µg/mL.

On to `Nc1ncnc2c1ncn2CC(O)CO` (racemic), for which the MID turned out to be 20 µg/mL.

Turning to `Nc1nc(O)c2c(ncn2CC(O)CO)n1` (racemic), the MID was above 400 µg/mL.

Take `Nc1ncnc2c1ncn2CCC(O)CO` (racemic): the MID amounted to 200 µg/mL.

In the case of `Nc1ncnc2c1ncn2CCC(O)CCO` (racemic), the MID is above 400 µg/mL.

As to `Nc1nc(N)c2ncn(CC(O)CO)c2n1` (racemic), the MID was above 400 µg/mL.

Regarding `CSc1nc(N)c2ncn(CC(O)CO)c2n1` (racemic), the MID is above 400 µg/mL.

For `Nc1ncnc2c1nc(O)n2CC(O)CO` (racemic), the MID was above 400 µg/mL.

`Nc1ncnc2c1nc(S)n2CC(O)CO` (racemic): the MID was above 400 µg/mL.

On to `CNc1ncnc2c1ncn2CC(O)CO` (racemic), for which the MID was above 400 µg/mL.

For `CN(C)c1ncnc2c1ncn2CC(O)CO` (racemic), the MID is above 400 µg/mL.

In the case of `OCC(O)Cn1cnc2c(S)ncnc21` (racemic), the MID is above 400 µg/mL.

As for `Nc1nc2c(ncn2CC(O)CO)c(=O)[nH]1` (racemic), the MID is above 400 µg/mL.

Take `Nc1c2ncn(CC(O)CO)c2nc[n+]1[O-]` (racemic): the MID is above 400 µg/mL.

As to `Nc1ccn(CC(O)CO)c(=O)n1` (racemic), the MID came out at 400 µg/mL.

On to `O=c1cnn(CC(O)CO)c(=O)[nH]1` (racemic), for which the MID is above 400 µg/mL.

On to `CCC(=O)OCC(Cn1cnc2c(N)ncnc21)OC(=O)CC` (racemic), for which the MID worked out at 300 µg/mL.

Take `CCCCCCCCCCCCCCCC(=O)OCC(O)Cn1cnc2c(N)ncnc21` (racemic): the MID was above 400 µg/mL.

Regarding `CC(C)(C)C(=O)OCC(O)Cn1cnc2c(N)ncnc21` (racemic), the MID is above 400 µg/mL.

Regarding `CC(C)(C)C(=O)OCC(Cn1cnc2c(N)ncnc21)OC(=O)C(C)(C)C` (racemic), the MID is above 400 µg/mL.

Regarding `COC(CO)Cn1cnc2c(N)ncnc21` (racemic), the MID came to 300 µg/mL.

With `COCC(O)Cn1cnc2c(N)ncnc21` (racemic), the MID was above 400 µg/mL.

In the case of `COCC(Cn1cnc2c(N)ncnc21)OC` (racemic), the MID was 300 µg/mL.

For the compound `[N-]=[N+]=NCC(O)Cn1cnc2c(N)ncnc21` (racemic), the MID came to 200 µg/mL.

For the compound `[N-]=[N+]=NCC(Cn1cnc2c(N)ncnc21)N=[N+]=[N-]` (racemic), the MID is 400 µg/mL.

As to `Nc1ncnc2c1ncn2CC(N)CO` (racemic), the MID amounted to 100 µg/mL.

Regarding `NCC(O)Cn1cnc2c(N)ncnc21` (racemic), the MID turned out to be 200 µg/mL.

Take `NCC(N)Cn1cnc2c(N)ncnc21` (racemic): the MID is above 400 µg/mL.

Consider `Nc1ncnc2c1ncn2CC(O)C(O)CO` (racemic), for which the MID was found to be 200 µg/mL.

As for `O=c1ccn(CC(O)C(O)CO)c(=O)[nH]1` (racemic), the MID is above 400 µg/mL.

As for `O=c1ccn(C[C@H](O)[C@H](O)CO)c(=O)[nH]1` (racemic), the MID was above 400 µg/mL.

Regarding `O=c1ccn(CCC(O)CCO)c(=O)[nH]1` (racemic), the MID is above 400 µg/mL.

Take `C[C@@H](O)[C@@H](O)Cn1cnc2c(N)ncnc21` (racemic): the MID amounted to 100 µg/mL.

For the compound `CC(O)Cn1cnc2c(N)ncnc21` (racemic), the MID was above 400 µg/mL.

`Nc1ncnc2c1nc(Br)n2CC(O)CO` (racemic): the MID is above 200 µg/mL.

As to `Nc1ncnc2c1ncn2C[C@H](O)CO` [(S)-DHPA], the MID is 7 µg/mL.

Regarding `Nc1ccn([C@@H]2O[C@H](CO)[C@@H](O)[C@@H]2O)c(=O)n1` [CYTARABINE], the MID amounted to 10 µg/mL.

Take `O=c1[nH]c(=O)n([C@H]2C[C@H](O)[C@@H](CO)O2)cc1I` [IDOXURIDINE]: the MID was above 400 µg/mL.

As to `Nc1ncnc2c1ncn2[C@@H]1O[C@H](CO)[C@@H](O)[C@@H]1O` [VIDARABINE], the MID was found to be 20 µg/mL.
